PubChem BioAssay AID1963833 (Molecular Pharmacology Branch, DTP, NCI, 2024)

System: 883617-216-R-J1-PDC complex spheroid viability
Experiment: Anticancer human tumor 883617-216-R-J1-PDC patient-derived bladder carcinoma cell line growth inhibition [POLQ]
Conditions: for IC50: curve of first compound; for viability, T/C: stronger effect = lower value
Method in brief: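 Growth inhibition in 3D: complex spheroids (tumor PDC, HUVEC, MSC) treated with POLQ inhibitor combinations; where Cmax unknown, highest tested concentration 10 microM, except SN-38 at 1 microM.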

[1] = second compound 0.0316 µM, first compound 0.0316 µM
[2] = second compound 0.0316 µM, first compound 0.1 µM
[3] = second compound 0.0316 µM, first compound 0.316 µM
[4] = second compound 0.0316 µM, first compound 1 µM
[5] = second compound 0.0316 µM, first compound 3.16 µM
[6] = second compound 0.0316 µM, first compound 10 µM
[7] = second compound 0.1 µM, first compound 0.0316 µM
[8] = second compound 0.1 µM, first compound 0.1 µM
[9] = second compound 0.1 µM, first compound 0.316 µM
[10] = second compound 0.1 µM, first compound 1 µM
[11] = second compound 0.1 µM, first compound 3.16 µM
[12] = second compound 0.1 µM, first compound 10 µM
[13] = second compound 0.316 µM, first compound 0.0316 µM
[14] = second compound 0.316 µM, first compound 0.1 µM
[15] = second compound 0.316 µM, first compound 0.316 µM
[16] = second compound 0.316 µM, first compound 1 µM
[17] = second compound 0.316 µM, first compound 3.16 µM
[18] = second compound 0.316 µM, first compound 10 µM
[19] = second compound 1 µM, first compound 0.0316 µM
[20] = second compound 1 µM, first compound 0.1 µM
[21] = second compound 1 µM, first compound 0.316 µM
[22] = second compound 1 µM, first compound 1 µM
[23] = second compound 1 µM, first compound 3.16 µM
[24] = second compound 1 µM, first compound 10 µM
[25] = second compound 3.16 µM, first compound 0.0316 µM
[26] = second compound 3.16 µM, first compound 0.1 µM
[27] = second compound 3.16 µM, first compound 0.316 µM
[28] = second compound 3.16 µM, first compound 1 µM
[29] = second compound 3.16 µM, first compound 3.16 µM
[30] = second compound 3.16 µM, first compound 10 µM
[31] = second compound 10 µM, first compound 0.0316 µM
[32] = second compound 10 µM, first compound 0.1 µM
[33] = second compound 10 µM, first compound 0.316 µM
[34] = second compound 10 µM, first compound 1 µM
[35] = second compound 10 µM, first compound 3.16 µM
[36] = second compound 10 µM, first compound 10 µM
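Note: spheroids exposed to compounds for seven days before readout.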
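Throughout, for viability, T/C: 100% = DMSO vehicle control viability.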

## CC1COCCN1c1cc(-c2ccnn2C)c2ccnc(-c3ccn[nH]3)c2n1 (stereo not drawn) + Nc1ccc(C#CCN(C(=O)Cc2ncc(C(F)(F)F)cc2C(F)(F)F)c2ccc(F)cc2)nn1
Second compound 0.0316 µM
  IC50: 292 nM
Second compound 0.1 µM
  IC50: 408 nM
Second compound 0.316 µM
  IC50: 479 nM
Second compound 1 µM
  IC50: 422 nM
Second compound 3.16 µM
  IC50: 572 nM
Second compound 10 µM
  IC50: 482 nM
[1]
  viability, T/C: 76.9%
[2]
  viability, T/C: 65.1%
[3]
  viability, T/C: 48%
[4]
  viability, T/C: 35.7%
[5]
  viability, T/C: 36.3%
[6]
  viability, T/C: 25.3%
[7]
  viability, T/C: 73.1%
[8]
  viability, T/C: 59.3%
[9]
  viability, T/C: 59.1%
[10]
  viability, T/C: 33.6%
[11]
  viability, T/C: 32.6%
[12]
  viability, T/C: 24.9%
[13]
  viability, T/C: 75.4%
[14]
  viability, T/C: 58.4%
[15]
  viability, T/C: 59%
[16]
  viability, T/C: 41.4%
[17]
  viability, T/C: 34.9%
[18]
  viability, T/C: 26%
[19]
  viability, T/C: 68.2%
[20]
  viability, T/C: 60.5%
[21]
  viability, T/C: 51.7%
[22]
  viability, T/C: 41.7%
[23]
  viability, T/C: 44.8%
[24]
  viability, T/C: 34.8%
[25]
  viability, T/C: 70.9%
[26]
  viability, T/C: 61.3%
[27]
  viability, T/C: 56.1%
[28]
  viability, T/C: 44%
[29]
  viability, T/C: 39.1%
[30]
  viability, T/C: 28.9%
[31]
  viability, T/C: 84.5%
[32]
  viability, T/C: 70%
[33]
  viability, T/C: 59.5%
[34]
  viability, T/C: 35.4%
[35]
  viability, T/C: 40.1%
[36]
  viability, T/C: 34.4%

## CCc1cc2c(N3CCc4c(cc(Cn5ccnc5)cc4-c4cn(C)nc4C(F)(F)F)C3=O)cc(C)nc2c(OC)n1 + Nc1ccc(C#CCN(C(=O)Cc2ncc(C(F)(F)F)cc2C(F)(F)F)c2ccc(F)cc2)nn1
Second compound 0.0316 µM
  IC50: > 10000 nM
Second compound 0.1 µM
  IC50: > 10000 nM
Second compound 0.316 µM
  IC50: > 10000 nM
Second compound 1 µM
  IC50: > 10000 nM
Second compound 3.16 µM
  IC50: > 10000 nM
Second compound 10 µM
  IC50: 9750 nM
[1]
  viability, T/C: 89.2%
[2]
  viability, T/C: 92.2%
[3]
  viability, T/C: 92.8%
[4]
  viability, T/C: 90.4%
[5]
  viability, T/C: 76%
[6]
  viability, T/C: 52.3%
[7]
  viability, T/C: 85.5%
[8]
  viability, T/C: 96.9%
[9]
  viability, T/C: 95.5%
[10]
  viability, T/C: 90.6%
[11]
  viability, T/C: 79.5%
[12]
  viability, T/C: 64.5%
[13]
  viability, T/C: 105%
[14]
  viability, T/C: 93.1%
[15]
  viability, T/C: 98%
[16]
  viability, T/C: 88.4%
[17]
  viability, T/C: 73.9%
[18]
  viability, T/C: 57.4%
[19]
  viability, T/C: 91.5%
[20]
  viability, T/C: 93.3%
[21]
  viability, T/C: 94%
[22]
  viability, T/C: 88.9%
[23]
  viability, T/C: 71.6%
[24]
  viability, T/C: 61.8%
[25]
  viability, T/C: 106%
[26]
  viability, T/C: 92.4%
[27]
  viability, T/C: 96.4%
[28]
  viability, T/C: 97.5%
[29]
  viability, T/C: 78.6%
[30]
  viability, T/C: 67.8%
[31]
  viability, T/C: 106%
[32]
  viability, T/C: 118%
[33]
  viability, T/C: 115%
[34]
  viability, T/C: 101%
[35]
  viability, T/C: 90.5%
[36]
  viability, T/C: 48.8%

## CCc1cc2c(N3CCc4c(cc(Cn5ccnc5)cc4-c4cn(C)nc4C(F)(F)F)C3=O)ccnc2c(OC)n1 + Nc1ccc(C#CCN(C(=O)Cc2ncc(C(F)(F)F)cc2C(F)(F)F)c2ccc(F)cc2)nn1
Second compound 0.0316 µM
  IC50: 9570 nM
Second compound 0.1 µM
  IC50: 9930 nM
Second compound 0.316 µM
  IC50: > 10000 nM
Second compound 1 µM
  IC50: > 10000 nM
Second compound 3.16 µM
  IC50: > 10000 nM
Second compound 10 µM
  IC50: > 10000 nM
[1]
  viability, T/C: 109%
[2]
  viability, T/C: 97.5%
[3]
  viability, T/C: 91.4%
[4]
  viability, T/C: 104%
[5]
  viability, T/C: 80.4%
[6]
  viability, T/C: 48.8%
[7]
  viability, T/C: 91.1%
[8]
  viability, T/C: 109%
[9]
  viability, T/C: 103%
[10]
  viability, T/C: 105%
[11]
  viability, T/C: 86%
[12]
  viability, T/C: 49.8%
[13]
  viability, T/C: 98.8%
[14]
  viability, T/C: 107%
[15]
  viability, T/C: 102%
[16]
  viability, T/C: 91.1%
[17]
  viability, T/C: 84.8%
[18]
  viability, T/C: 59%
[19]
  viability, T/C: 95.6%
[20]
  viability, T/C: 104%
[21]
  viability, T/C: 97.9%
[22]
  viability, T/C: 94.9%
[23]
  viability, T/C: 88.9%
[24]
  viability, T/C: 61%
[25]
  viability, T/C: 109%
[26]
  viability, T/C: 97.7%
[27]
  viability, T/C: 110%
[28]
  viability, T/C: 102%
[29]
  viability, T/C: 82.3%
[30]
  viability, T/C: 69.6%
[31]
  viability, T/C: 105%
[32]
  viability, T/C: 99.6%
[33]
  viability, T/C: 107%
[34]
  viability, T/C: 108%
[35]
  viability, T/C: 82.9%
[36]
  viability, T/C: 57.8%

## COc1ccc([C@@H](O)c2cc(-c3ncnc4cc(N5CCOCC5)ccc34)c(F)cc2Cl)nn1 + Nc1ccc(C#CCN(C(=O)Cc2ncc(C(F)(F)F)cc2C(F)(F)F)c2ccc(F)cc2)nn1
Second compound 0.0316 µM
  IC50: 2810 nM
Second compound 0.1 µM
  IC50: 2800 nM
Second compound 0.316 µM
  IC50: 2660 nM
Second compound 1 µM
  IC50: 3410 nM
Second compound 3.16 µM
  IC50: 2870 nM
Second compound 10 µM
  IC50: 2500 nM
[1]
  viability, T/C: 104%
[2]
  viability, T/C: 92.5%
[3]
  viability, T/C: 90.1%
[4]
  viability, T/C: 66.7%
[5]
  viability, T/C: 48%
[6]
  viability, T/C: 36.6%
[7]
  viability, T/C: 75.6%
[8]
  viability, T/C: 97.9%
[9]
  viability, T/C: 84.6%
[10]
  viability, T/C: 63.2%
[11]
  viability, T/C: 51.9%
[12]
  viability, T/C: 33.1%
[13]
  viability, T/C: 108%
[14]
  viability, T/C: 99.7%
[15]
  viability, T/C: 84.3%
[16]
  viability, T/C: 62.8%
[17]
  viability, T/C: 49.8%
[18]
  viability, T/C: 31.4%
[19]
  viability, T/C: 94.8%
[20]
  viability, T/C: 89.3%
[21]
  viability, T/C: 77.9%
[22]
  viability, T/C: 68.2%
[23]
  viability, T/C: 50%
[24]
  viability, T/C: 35.9%
[25]
  viability, T/C: 96.3%
[26]
  viability, T/C: 102%
[27]
  viability, T/C: 90.8%
[28]
  viability, T/C: 68.3%
[29]
  viability, T/C: 50.6%
[30]
  viability, T/C: 37.1%
[31]
  viability, T/C: 108%
[32]
  viability, T/C: 103%
[33]
  viability, T/C: 101%
[34]
  viability, T/C: 75.5%
[35]
  viability, T/C: 43.6%
[36]
  viability, T/C: 32.6%
